Where two headings read alike, the source gives them in different places.
Assays:
M. tb H37Rv-GFP [1] = assay: microbe, parasite or virus in culture; format: cell-based; conditions: Mycobacterium tuberculosis, 120 h, read-out: Extracellular growth IC50
M. tb H37Rv-GFP [2] = assay: microbe, parasite or virus in culture; format: cell-based; conditions: Mycobacterium tuberculosis, RAW264.7, 120 h, read-out: Intracellular macrophage growth IC50
in vitro = conditions: mouse

Row | Compound | IC50 (M. tb H37Rv-GFP [1]) | IC50 (M. tb H37Rv-GFP [2]) | CC50 (in vitro)
1 | CO[C@H]1/C=C/O[C@@]2(C)Oc3c(C)c(O)c4c(O)c(c(/C=N/N5CCN(C)CC5)c(O)c4c3C2=O)NC(=O)/C(C)=C\C=C\[C@H](C)[C@H](O)[C@@H](C)[C@@H](O)[C@@H](C)[C@H](OC(C)=O)[C@@H]1C [Rifampin] | 0.01 µM | 2.9 µM | 24 µM
2 | CCc1cc(C(N)=S)ccn1 [Ethionamide] | 6 µM | 6 µM | 120 µM
3 | NNC(=O)c1ccncc1 [Isoniazid] | 1.2 µM | 1.2 µM | > 150 µM
